As a reminder, the solubility is how much of the substance goes into solution per volume.

Molecules are shown by their SMILES. Counter-ions that a name gives are not always drawn.

The nature of data set [1]: Conversion of prodrug to parent compound 1 after IV dosing (plasma HPLC). Format: in vivo. The conditions noted are these: male Wistar rats; for conversion to parent compound 1 in vivo (in words): IV administration; for metabolised at 24 h: rat, n=3, slow IV bolus about 5 mg/kg parent-equivalent, parent compound 1 in plasma up to 24 h. An excerpt: Male Wistar rats weighing 244 to 390 g were used in the in vivo experiments. The day before the experiment, the rats were surgically prepared. Rats were anesthetized with ether, and the right jugular vein was cannulated for intravenous dosing and/or systemic sampling. The cannula was exteriorized at the nape of the rat between the shoulder blades. The animals were allowed to recover overnight from surgery and fasted with water ad libitum.
Dosing solutions of the prodrugs (5, 25, 18, 34, 20c, 20d, 20e, and 20f) were prepared separately in 5% dextrose in water (D5W). Compound 20a was dissolved in 5% ethanol in D5W whereas compound 29 was dissolved in 20% ethanol, 20% polyethylene glycol 400 in D5W. Animals were randomly assigned to groups of three. The prodrug solutions were administered intravenously as a slow bolus at about 5 mg/kg parent-equivalent or orally as a gastric gavage at about 15 mg/kg parent-equivalent (Table 1 on Page 10 contains PO data). The cannula was subsequently rinsed with 1 mL D5W. Systemic blood was sampled predose and at selected times up to 24 hours after dosing. Blood samples (0.5 mL) were collected on ice, heparinized, and immediately centrifuged; then plasma was harvested and stored at -20° C. until analysis by HPLC.
The plasma samples were analyzed by validated HPLC assay for the parent compound 1. Plasma (200 μL) was spiked with 18 μL of internal standard ([2-(1H-indol-3-yl)-1-methyl-1-(1-phenyl-ethylcarbamoyl)-ethyl]-carbimic acid 4-ethyl-benzyl ester; 2.5 μM) and 400 μL acetonitrile (ACN) to precipitate protein. The supernatant was transferred to a clean test tube and evaporated to dryness. The residue was reconstituted in 50:50 ACN:water and injected onto the HPLC.
Detailed bioconversion data often prodrugs is found in Table 1 below.

The next data set in a line: Aqueous solubility. The format is physicochemical. The settings on record: water.

As to `C[C@H](NC(=O)[C@@](C)(Cc1cn(C(=O)OCOC(=O)c2ccc(CN(C)CCN(C)C)cc2)c2ccccc12)NC(=O)OCc1cc2ccccc2o1)c1ccccc1` [Compound 20f, 3-[2-(Benzofuran-2-ylmethoxycarbonylamino)-2-(1-phenyl-ethylcarbamoyl)-propyl]-indole-1-carboxylic acid 4-{[(2-dimethylamino-ethyl)-methyl-amino]-methyl}-benzoyloxymethyl ester dihydrochloride salt], in data set [1], the “conversion to parent compound 1 in vivo (in words)” value (from here on “conversion”) was “comparable reconversion as (20a)” and the metabolised at 24 h came to 104 ± 38.2%.

Consider `C[C@H](NC(=O)[C@@](C)(Cc1cn(C(=O)c2ccccc2COP(=O)(O)O)c2ccccc12)NC(=O)OCc1cc2ccccc2o1)c1ccccc1` [Compound 25, {1-Methyl-1-(1-phenyl-ethylcarbamoyl)-2-[1-(2-phosphonooxymethyl-benzoyl)-1H-indol-3-yl]-ethyl}-carbamic acid benzofuran-2-ylmethyl ester disodium salt], for which, in data set [1], the metabolised at 24 h turned out to be 19.9 ± 1.07%.

For the compound `C[C@H](NC(=O)[C@@](C)(Cc1cn(C(=O)OCOC(=O)c2ccc(CN3CCN(CCO)CC3)cc2)c2ccccc12)NC(=O)OCc1cc2ccccc2o1)c1ccccc1` [Compound 20d, 3-[2-(Benzofuran-2-ylmethoxycarbonylamino)-2-(1-phenyl-ethylcarbamoyl)-propyl]-indole-1-carboxylic acid 4-[4-(2-hydroxy-ethyl)-piperazin-1-ylmethyl]-benzoyloxymethyl ester dihydrochloride salt], in data set [1], the “conversion” value is on record as “comparable reconversion as (20a)” and the metabolised at 24 h was found to be 64.2 ± 14.3%.

With `C[C@H](NC(=O)[C@@](C)(Cc1c[nH]c2ccccc12)NC(=O)OCc1cc2ccccc2o1)c1ccccc1` [Compound 1, 2-benzofuranylmethyl [R-(R*,S*)]-[1-(1H-indol-3-ylmethyl)-1-methyl-2-oxo-2-[(1-phenylethyl)amino]ethyl]carbamate, reference compound], in “Aqueous solubility” (parent drug), the solubility was below 1 µg/mL.

Take `Cc1cc(C)c(C(C)(C)CC(=O)n2cc(C[C@@](C)(NC(=O)OCc3cc4ccccc4o3)C(=O)N[C@@H](C)c3ccccc3)c3ccccc32)c(OP(=O)(O)O)c1` [Compound 34, [2-{1-[3-(2,4-Dimethyl-6-phosphonooxy-phenyl)-3-methylbutyryl]-1H-indol-3-yl}-1-methyl-1-(1-phenylethylcarbamoyl)ethyl]carbamic acid benzofuran-2-ylmethyl ester disodium salt]: in data set [1], the “conversion” value is recorded as “lowest bioconversion in vivo”. Further, the metabolised at 24 h in data set [1] (in vivo) was determined as 9.35 ± 4.12%.

`C[C@H](NC(=O)[C@@](C)(Cc1cn(P(=O)(O)O)c2ccccc12)NC(=O)OCc1cc2ccccc2o1)c1ccccc1` [Compound 5, {3-[2-(Benzofuran-2-ylmethoxycarbonylamino)-2-(1-phenyl-ethylcarbamoyl)propyl]-indol-1-yl}-phosphonic acid disodium salt]: the metabolised at 24 h in data set [1] worked out at 11.7 ± 0.84%.

Turning to `C[C@H](NC(=O)[C@@](C)(Cc1cn(C(=O)OCOC(=O)c2ccc(COP(=O)(O)O)cc2)c2ccccc12)NC(=O)OCc1cc2ccccc2o1)c1ccccc1` [Compound 18, 3-[2-(Benzofuran-2-ylmethoxycarbonylamino)-2-(1-phenyl-ethylcarbamoyl)propyl]-indol-1-carboxylic acid phosphonooxymethylbenzoyloxymethyl ester disodium salt], in data set [1], the “conversion” value was “highest reconversion” and the metabolised at 24 h is 59.5 ± 21.3%.

For the compound `C[C@H](NC(=O)[C@@](C)(Cc1cn(C(=O)OCOC(=O)c2ccc(CN(C)C)cc2)c2ccccc12)NC(=O)OCc1cc2ccccc2o1)c1ccccc1` [Compound 20a, 3-[2-(Benzofuran-2-ylmethoxycarbonylamino)-2-(1-phenyl-ethylcarbamoyl)-propyl]-indole-1-carboxylic acid 4-dimethylaminomethyl-benzoyloxymethyl ester monohydrochloride salt], in data set [1], the “conversion” value is on record as “higher conversion than the phosphate prodrugs” and the metabolised at 24 h was found to be 86.9 ± 18.6%. Besides, in “Aqueous solubility”, the “aqueous solubility (in words)” value is “not water-soluble”.

With `C[C@H](NC(=O)[C@@](C)(Cc1cn(C(=O)OCOC(=O)c2ccc(CN3CCNCC3)cc2)c2ccccc12)NC(=O)OCc1cc2ccccc2o1)c1ccccc1` [Compound 20e, 3-[2-(Benzofuran-2-ylmethoxycarbonylamino)-2-(1-phenyl-ethylcarbamoyl)-propyl]-indole-1-carboxylic acid 4-piperazin-1-ylmethyl-benzoyloxymethyl ester dihydrochloride salt], in data set [1], the “conversion” value is “comparable reconversion as (20a)” and the metabolised at 24 h is 88.5 ± 9.2%.

With `C[C@H](NC(=O)[C@@](C)(Cc1cn(C(=O)OCOC(=O)c2ccc(CN3CCN(C)CC3)cc2)c2ccccc12)NC(=O)OCc1cc2ccccc2o1)c1ccccc1` [Compound 20c, 3-[2-(Benzofuran-2-ylmethoxycarbonylamino)-2-(1-phenyl-ethylcarbamoyl)-propyl]-indole-1-carboxylic acid 4-(4-methyl-piperazin-1-methyl)-benzoyloxymethyl ester dihydrochloride salt], in data set [1], the “conversion” value is on record as “comparable reconversion as (20a)” and the metabolised at 24 h came out at 68 ± 5.2%.

Source of the values: patent US6258800A, “Prodrugs of benzofuranylethyl carbamate NK1 antagonists” (Warner-Lambert Company, priority 2000, dated 2001).
